Data: patent US20170065556A1, “ORAL FORMULATIONS OF PYRROLIDINE DERIVATIVES” (OBSEVA S.A., priority 2013, published 2017)

Experiments:
[1] = Qualitative solubility/crystallisation tests in solvents (15 mg scale); type: physicochemical
[2] = female, human, in vivo, 20 h
Experimental: Twelve healthy Caucasian women aged 54-62 years (mean 58.3 years), with a weight of 51 to 67 kg (mean 60.6 kg±5.1) and a body mass index ranging between 19.4-25.5 kg/m2 (mean 23.12 kg/m2±2.05) were enrolled. They were administered, on three separate treatment periods of one week, either two consecutive (3Z,5S) doses of 600 mg/day (administered to subjects using 3 dispersible tablets of 200 mg in 150 ml of water) or two intramuscular injections of 12 mg/day betamethasone or both drugs in combination.
Therefore, pharmacokinetic parameters of the treatment with (3Z,5S) dispersible tablets were calculated for 12 subjects, whereas pharmacokinetic parameters of the combination treatment were assessed for 11 participants.
During each treatment period of one week, blood samples were collected for the analysis of (3Z,5S) and betamethasone at time points 0 (pre-dose) and at 0.25, 0.5, 0.75, 1, 1.5, 2, 3, 4, 6, 8, 10, 12, 16, 20 and 24 hours after first dose on day 1. The plasma was prepared and stored below −20° C. All samples were analysed using validated LC-MS/MS methods. For the analysis of (3Z,5S), the lower limit of quantification was 1.0 ng/ml. For betamethasone analyses, the lower limit of quantification was 0.5 ng/ml.
Pharmacokinetic parameters were estimated by non-compartmental methods using the Phoenix® WinNonLin® version 6.3 (Pharsight). […]

Qualitative solubility, Dissolves in ([1]; solvent DIPE): 40 vol hot | Qualitative solubility, Dissolves in ([1]; solvent IPA): 4 vol hot | Qualitative solubility, Dissolves in ([1]; solvent MIBK): 4 vol hot | Qualitative solubility, Dissolves in ([1]; solvent THF): 4 vol cold | Qualitative solubility, Dissolves in / Comment ([1]; solvent heptanes): insoluble in 20 vol | Qualitative solubility, Dissolves in ([1]; solvent tBuOH): 6 vol hot | Qualitative solubility, Dissolves in ([1]; solvent toluene): 2 vol cold | % of Cmax [2]: 25%
Structure (SMILES): CO/N=C1/C[C@@H](CO)N(C(=O)c2ccc(-c3ccccc3C)cc2)C1 [(3Z,5S), (3Z,5S)-5-(hydroxymethyl)-1-[(2′-methyl-1,1′-biphenyl-4-yl)carbonyl]pyrrolidin-3-one-O-methyloxime]
